This is an account of results in ChEMBL document CHEMBL1128371, “Synthesis and structure-activity relationships of side-chain-substituted analogs of the allylamine antimycotic terbinafine lacking the central amino function” (1995).

Converted amounts (≈) assume the structure as drawn.

One assay relates to Aspergillus fumigatus. In words: In vitro antifungal activity against Aspergillus fumigatus. The format is functional.
For the next assay, the system named is Candida albicans. Put plainly: In vitro antifungal activity against Candida albicans 124. The format is functional.
Another assay concerns Candida parapsilosis. In words: In vitro antifungal activity against Candida parapsilosis 39. Format: functional. As to conditions: Lodderomyces parapsilosis.
The subject of another assay is Microsporum canis. In words: In vitro antifungal activity against Microsporum canis. Format: functional.
In the next assay the test system is Sporothrix schenckii. In words: In vitro antifungal activity against Sporothrix schenck ii. Format: functional.
A further assay deals with Trichophyton benhamiae. In words: In vitro antifungal activity against Trichophyton mentagrophytes. Format: functional, Arthroderma benhamiae.

Broadly, the MIC is the lowest concentration found to suppress growth. Higher therefore signals a less susceptible organism. With `CC(C/C=C/C#CC(C)(C)N(C)C)Cc1cccc2ccccc12` (stereo not given), the MIC in the assay with Aspergillus fumigatus came out at 12.5 µg/mL (≈ 39.1 µM); in the assay with Candida albicans, 50 µg/mL (≈ 156 µM); with Candida parapsilosis, 6.25 µg/mL (≈ 19.6 µM); with Microsporum canis, 0.2 µg/mL (≈ 0.626 µM); against Sporothrix schenckii it was 3.1 µg/mL (≈ 9.7 µM); in the assay on Trichophyton benhamiae, 0.1 µg/mL (≈ 0.313 µM).
As to `CC(C/C=C/C#CC(C)(C)C(N)=O)Cc1cccc2ccccc12` (stereo not given), the MIC in the assay with Aspergillus fumigatus, against Candida albicans, with Candida parapsilosis, in the assay with Microsporum canis, in the assay on Sporothrix schenckii and against Trichophyton benhamiae was more than 100 µg/mL in each case.
As to `CN(C/C=C/C#CC(C)(C)C)Cc1cccc2ccccc12` [TERBINAFINE], the minimal inhibitory concentration (MIC) was determined as 0.8 µg/mL (≈ 2.75 µM) against Aspergillus fumigatus; 25 µg/mL (≈ 85.8 µM) against Candida albicans; 0.8 µg/mL (≈ 2.75 µM) in the assay on Candida parapsilosis; 0.006 µg/mL (≈ 0.0206 µM) with Microsporum canis; 0.4 µg/mL (≈ 1.37 µM) with Sporothrix schenckii; 0.003 µg/mL (≈ 0.0103 µM) against Trichophyton benhamiae.
For the compound `CC(=O)NC(C)(C)C#C/C=C/CC(C)Cc1cccc2ccccc12` (stereo not given), the MIC in the assay on Aspergillus fumigatus, with Candida albicans, against Candida parapsilosis, against Microsporum canis, in the assay on Sporothrix schenckii and in the assay with Trichophyton benhamiae was more than 50 µg/mL in each case.
On to `COC(=O)C(C)(C)C#C/C=C/CC(C)Cc1cccc2ccccc12` (stereo not given), for which the MIC against Aspergillus fumigatus was more than 100 µg/mL; with Candida albicans it was more than 100 µg/mL; against Candida parapsilosis, more than 100 µg/mL; against Microsporum canis, 0.8 µg/mL (≈ 2.39 µM); in the assay with Sporothrix schenckii, more than 100 µg/mL; with Trichophyton benhamiae it was 0.1 µg/mL (≈ 0.299 µM).
Take `CC(C/C=C/C#CC(C)(C)C#N)Cc1cccc2ccccc12` (stereo not given): the MIC against Aspergillus fumigatus is more than 100 µg/mL; against Candida albicans it was more than 100 µg/mL; against Candida parapsilosis it was more than 100 µg/mL; with Microsporum canis, 12.5 µg/mL (≈ 41.5 µM); in the assay on Sporothrix schenckii, more than 100 µg/mL; against Trichophyton benhamiae, 0.4 µg/mL (≈ 1.33 µM).
As to `CN(C/C=C/c1ccccc1)Cc1cccc2ccccc12` [NAFTIFINE], the MIC against Aspergillus fumigatus worked out at 12.5 µg/mL (≈ 43.5 µM); in the assay on Candida parapsilosis it was 1.6 µg/mL (≈ 5.57 µM); in the assay with Microsporum canis, 0.1 µg/mL (≈ 0.348 µM); in the assay with Sporothrix schenckii, 1.6 µg/mL (≈ 5.57 µM); against Trichophyton benhamiae it was 0.05 µg/mL (≈ 0.174 µM).
Consider `CC(C/C=C/C#CC(C)(C)O)Cc1cccc2ccccc12` (stereo not given), for which the MIC is more than 100 µg/mL against Aspergillus fumigatus; more than 100 µg/mL in the assay on Candida albicans; more than 100 µg/mL against Candida parapsilosis; more than 100 µg/mL in the assay on Microsporum canis; more than 100 µg/mL against Sporothrix schenckii; 3.1 µg/mL (≈ 10.6 µM) in the assay on Trichophyton benhamiae.
As to `CC(C/C=C/C#CC(C)(C)N(C)c1ccccc1)Cc1cccc2ccccc12` (stereo not given), the MIC in the assay on Aspergillus fumigatus, against Candida albicans, against Candida parapsilosis, in the assay with Microsporum canis, with Sporothrix schenckii and against Trichophyton benhamiae was more than 100 µg/mL throughout.
As for `CC(C/C=C/C#CC(C)(C)[N+](C)(C)C)Cc1cccc2ccccc12` (stereo not given), the MIC in the assay with Aspergillus fumigatus was more than 100 µg/mL; in the assay with Candida albicans it was 25 µg/mL; against Candida parapsilosis it was 100 µg/mL; with Microsporum canis it was more than 100 µg/mL; in the assay with Sporothrix schenckii, 12.5 µg/mL; in the assay with Trichophyton benhamiae, more than 100 µg/mL.
On to `CC(C/C=C/C#CC(C)(C)C(=O)O)Cc1cccc2ccccc12` (stereo not given), for which the MIC in the assay on Aspergillus fumigatus, against Candida albicans, in the assay with Candida parapsilosis, against Microsporum canis, against Sporothrix schenckii and in the assay on Trichophyton benhamiae was more than 100 µg/mL each time.
For `CC(C/C=C/C#CC(C)(C)C)Cc1cccc2ccccc12` (stereo not given), the MIC is more than 100 µg/mL in the assay with Aspergillus fumigatus; more than 100 µg/mL against Candida albicans; more than 100 µg/mL with Candida parapsilosis; 3.1 µg/mL (≈ 10.7 µM) against Microsporum canis; more than 100 µg/mL with Sporothrix schenckii; 0.4 µg/mL (≈ 1.38 µM) with Trichophyton benhamiae.
`CC(C/C=C/C#CC(C)(C)CN)Cc1cccc2ccccc12` (stereo not given): the MIC is 50 µg/mL (≈ 164 µM) in the assay on Aspergillus fumigatus; more than 50 µg/mL in the assay with Candida albicans; more than 50 µg/mL against Candida parapsilosis; 25 µg/mL (≈ 81.8 µM) in the assay on Microsporum canis; 25 µg/mL (≈ 81.8 µM) in the assay with Sporothrix schenckii; 6.25 µg/mL (≈ 20.5 µM) against Trichophyton benhamiae.
In the case of `CNC(=O)C(C)(C)C#C/C=C/CC(C)Cc1cccc2ccccc12` (stereo not given), the minimum inhibitory concentration (MIC) against Aspergillus fumigatus was more than 100 µg/mL; in the assay with Candida albicans it was more than 100 µg/mL; in the assay on Candida parapsilosis, more than 100 µg/mL; against Microsporum canis, 1.6 µg/mL (≈ 4.8 µM); against Sporothrix schenckii, more than 100 µg/mL; with Trichophyton benhamiae, 0.4 µg/mL (≈ 1.2 µM).
For the compound `CC(C/C=C/C#CC(C)(C)CO)Cc1cccc2ccccc12` (stereo not given), the MIC against Aspergillus fumigatus is more than 100 µg/mL; against Candida albicans, more than 100 µg/mL; with Candida parapsilosis, more than 100 µg/mL; against Microsporum canis, 100 µg/mL (≈ 326 µM); in the assay with Sporothrix schenckii, more than 100 µg/mL; against Trichophyton benhamiae it was 3.1 µg/mL (≈ 10.1 µM).
`CC(C/C=C/C#CC(C)(C)N)Cc1cccc2ccccc12` (stereo not given): the MIC with Aspergillus fumigatus was 25 µg/mL (≈ 85.8 µM); in the assay with Candida albicans, more than 100 µg/mL; in the assay with Candida parapsilosis it was more than 100 µg/mL; in the assay on Microsporum canis it was 3.1 µg/mL (≈ 10.6 µM); in the assay with Sporothrix schenckii, 12.5 µg/mL (≈ 42.9 µM); against Trichophyton benhamiae, 1.6 µg/mL (≈ 5.49 µM).
